Reference: patent publication US20150174202A1, “Methods and Compositions for Modulating Beta Cell Proliferation” (The Board of Trustees of the Leland Stanford Junior …, priority 2011, published 2015)
Entries after “also recorded” stand apart in the source; their conditions may differ.

Key:
[1] = tested on: Ezh2; assay: Ezh2/Ezh1 expression in cultured mouse islets (real-time RT-PCR, western blot); type: cell-based
Protocol: Mouse pancreatic islets were purified as described in Chen et al. (2009) Genes Dev. 23, 975-985 and used immediately for assays described in the text. To study Ezh2 induction in cultured islets exposed to mitogens, freshly isolated islets from 2-3-week old, and 7-12-month old C57BL/6 mice were recovered and equilibrated overnight at 37° C., 5% CO2 in RPMI-1640 medium supplemented with 0.5% fetal bovine serum (FBS), 0.2% bovine albumin (BSA) and 2% penicillin/streptomycin. Afterwards, islets were distributed into microplates or dishes, and treated with recombinant human PDGF-AA, prolactin or insulin (Sigma), with or without addition of pharmacological inhibitors, including Sunitinib (Selleck), […]0126 (Sigma), LY294002 (Sigma) or U-73122 (Sigma) at the indicated concentrations. Two days later, islets were harvested for RNA or protein extraction for real-time RTPCR or western blot analyses. To detect phosphorylation of Pdgfr-α by western blot, islets were exposed to PDGF-AA (with or without indicated pharmacological inhibitors) for 90 min before islet harvesting and protein extraction. To detect in vitro islet β-cell proliferation stimulated by PDGF-AA, a final concentration of 50 μM BrdU was introduced into each culture dish 24 h before harvest, followed by standard histological processing. Immunostaining of BrdU and insulin was performed on processed islets, and β-cell proliferation rate was determined by quantifying percentage of insulin+ cells with BrdU+. Culture experiments of human islets were performed using a similar procedure described later. Total RNA from freshly isolated or cultured islets after indicated treatments were purified using the Absolutely RNA miniprep purification kit (Stratagene) according to the manufacturer's instructions. RNA concentration was measured with a RiboGreen RNA quantification assay (Invitrogen). One-step quantitative RT-PCR was performed and analysed using an ABI Prism 7300 detection system (Applied Biosystems) with TaqMan one-step RTPCR Master Mix Reagents and appropriate amounts (10-100 ng) of islet total RNA as the template. We calculated the ratio of mRNA for the gene of interest to the amount of internal control mRNA of peptidylprolyl isomerase A (cyclophilin A, PPIA), and then normalized the ratio for each gene to its median. For western blots, total islet protein was prepared from freshly isolated or cultured islets after indicated treatments as described in Chen et al. (2009) Genes Dev. 23, 975-985. Equal amounts of protein were resolved on SDS-PAGE and transferred to polyvinylidine fluoride membranes (Amersham Pharmacia) for immunoblotting with specific antibodies, including rabbit polyclonal anti-human Ezh2 (1:1,000, Millipore), rabbit polyclonal anti-phospho-PDGFR-α ([…]) (1:1,000, Santa Cruz Biotechnologies), rabbit monoclonal anti-PDGFR-α (1:1,000, Cell Signaling), mouse monoclonal anti-β-actin (1:4,000, Sigma), rabbit monoclonal anti-Akt (1:1,500, Cell Signaling), rabbit monoclonal anti-phospho-Ark ([…]) (1:1,000, Cell Signaling), rabbit monoclonal anti-p44/42 MAPK (Erk1/2) (1:1,500, Cell Signaling), rabbit monoclonal anti-phospho-p44/42 MAPK (Erk1/2) […]) (1:1,000, Cell Signaling), rabbit monoclonal anti-PLCγ1 (1:1,000, Cell Signaling) and rabbit monoclonal anti-phospho-PLCγ1 ([…]) (1:1,000, Cell Signaling). Signal was visualized using ECL detection (Amersham Pharmacia) on Kodak film after further incubation with HRP-conjugated secondary antibodies. For phospho-PDGFR-α ([…]) and PDGFR-α detection, signal was amplified by incubating the membrane with biotinylated anti-rabbit-IgG (1:2,000), followed with an incubation with HRP-avidin (1:2,000, Vector Laboratories) and then ECL visualization.

[2] = tested on: mouse islet β-cells; assay: In vitro mouse islet β-cell proliferation (BrdU incorporation); type: cell-based; details: juvenile (3 week-old) mouse islets, PDGF-AA 50 ng/ml, 2 days
Protocol: Mouse pancreatic islets were purified as described in Chen et al. (2009) Genes Dev. 23, 975-985 and used immediately for assays described in the text. To study Ezh2 induction in cultured islets exposed to mitogens, freshly isolated islets from 2-3-week old, and 7-12-month old C57BL/6 mice were recovered and equilibrated overnight at 37° C., 5% CO2 in RPMI-1640 medium supplemented with 0.5% fetal bovine serum (FBS), 0.2% bovine albumin (BSA) and 2% penicillin/streptomycin. Afterwards, islets were distributed into microplates or dishes, and treated with recombinant human PDGF-AA, prolactin or insulin (Sigma), with or without addition of pharmacological inhibitors, including Sunitinib (Selleck), […]0126 (Sigma), LY294002 (Sigma) or U-73122 (Sigma) at the indicated concentrations. Two days later, islets were harvested for RNA or protein extraction for real-time RTPCR or western blot analyses. To detect phosphorylation of Pdgfr-α by western blot, islets were exposed to PDGF-AA (with or without indicated pharmacological inhibitors) for 90 min before islet harvesting and protein extraction. To detect in vitro islet β-cell proliferation stimulated by PDGF-AA, a final concentration of 50 μM BrdU was introduced into each culture dish 24 h before harvest, followed by standard histological processing. Immunostaining of BrdU and insulin was performed on processed islets, and β-cell proliferation rate was determined by quantifying percentage of insulin+ cells with BrdU+. […] For measuring pancreatic β-cell mass or BrdU by morphometry, three to six mice for each group were analysed. At least five sections separated by more than 300 μm (pancreases) or 50 μm (cultured islets) were immunostained and assessed for each sample. Images were analysed with an ImagePro program by observers blinded to genotype, and pancreatic β-cell mass and percentage of BrdU+β-cells were calculated as described in Chen et al. Polycomb protein Ezh2 regulates pancreatic 6-cell Ink4a/Arf expression and regeneration in diabetes mellitus. […]

[3] = tested on: INSULIN+ cells in human islet grafts; assay: Human β-cell replication in islets transplanted into NOD-scid mice with PDGF-AA infusion; type: in vivo
Text: Exposure of islets from young human donors to purified PDGF-AA stimulates ERK-dependent signaling pathways culminating in enhanced β-cell proliferation. However, these studies have not yet shown if PDGF-AA activation is sufficient to drive regeneration of functional β-cell mass in vivo. To assess this question, equivalent numbers of size-matched islets from young (ages 1-10 years) and control adult donors (age >20 years) were transplanted into NOD-scid mice. […] PDGF-AA infusion stimulated β-cell expansion in human islet grafts. A 200% increase of INSULIN^+ cell BrdU incorporation in grafts from young human donors (n=3 independent juvenile donors, three week PDGF-AA infusion; FIG. 26B-C). By contrast, we observed no increase of BrdU incorporation by INSULIN^+ cells in adult islet grafts (n=2), as expected based on our prior observation that adult β-cells no longer express Pdgf receptor α or Pdgf receptor β. Promoting the expression of Pdgf receptor on adult islet β-cells, e.g. by promoting Wnt signaling and/or preventing DNA methylatransferase activity, will render these adult islet β-cells sensitive to PGF-AA infusion.

[4] = grafts from young human donors, three week PDGF-AA infusion

Question: Which results are given for “PDGF-AA: recombinant human PDGF-AA, a homodimer of PDGF alpha polypeptides”?
Answer: Ezh2 mRNA and protein levels ([1]; 3-week-old (juvenile) mouse islets, 2 days exposure): increased; also recorded: induces; Ezh1 expression ([1]; 3-week-old mouse islets, 2 days exposure): but not Ezh1 expression; Ezh2 mRNA and protein levels ([1]; 7- or 9-month-old adult mouse islets exposed to PDGF-AA): not significantly increased; β-cell proliferation assessed by BrdU incorporation [2]: increased β-cell proliferation in juvenile islets; also recorded: induces; BrdU incorporation by INSULIN+ cells ([3]; adult human islet grafts, PDGF-AA infusion): no increase; INSULIN+ cell BrdU incorporation (in words) [3, 4]: Increase; increase of INSULIN+ cell BrdU incorporation [3, 4]: 200%
